Earlier results in patent US8309103B2, “Association of fluconazole-tinidazole for the treatment of vaginal infections, its composition, preparation process and usage” (Alparis, S.A. DE C.V., priority 2004, dated 2012).
Read-outs that look alike come from different tables or passages of the source. Each block holds one molecule with its values, some of them ahead of it.

Tests used:
vaginal candidiasis = conditions: one dose of 150 mg; 1,017 patients with vaginal candidiasis
[1] = in vivo, po
Trichomonas vaginalis = conditions: 2 grams in an only dose, sexual partner also involved
[2] = test system: Bacterial Vaginosis (Gardnerella vaginallis)

Share of the dose taken excreted (essentially urinary) (in 120 hours): 50% | Average plasmatic life (oral, one 2 g dose): about 25 hours | Time at which the highest seric rates are obtained (oral, one 2 g dose): third
SMILES: Cc1ncc([N+](=O)[O-])n1CC(C)O (centres unmarked) [secnidazole]

Relationship between plasma and the vaginal tissue [1]: 0.94-1.1
SMILES: OC(Cn1cncn1)(Cn1cncn1)c1ccc(F)cc1F [fluconazole]
Patients in whom well received and effective (vaginal candidiasis): 91%

SMILES: Cc1ncc([N+](=O)[O-])n1CCO [metronidazole]
Efficacy (Trichomonas vaginalis): up to 85%

SMILES: CCS(=O)(=O)CCn1c([N+](=O)[O-])cnc1C [tinidazole]
Curative rate ([2]; an only dose of 2 g tinidazole): 92% | Curative rate ([2]; same amount (2 g) in a two-day scheme, other researchers): 51%
